Results on 5 compounds are retold here after patent US6555692B1, “Preparation and use of bifunctional molecules having DNA sequence binding specificity” (California Institute of Technology, priority 1996, dated 2003).

One test concerns 5′-TGTGAACA-3′. In words: DNase I footprint titrations. Particulars: single base pair mismatch sequence.
The next test concerns 5′-AACCAAGTACTTGGTA-3′. In words: Association constants, recognition of 16 base pairs. The test is classed as binding. Particulars: Table 10, C3-OH polyamides, match site.
For another test, the system named is 5′-AACCAAGTCTTGGTA-3′. Kind of test: Association constants, recognition of 15 base pairs. Particulars: Table 7, C3-OH polyamides, match site.
For a further test, the system named is 5′-TGGAACA-3′. Kind of test: DNase I footprint titration. Particulars: formal match sequence.
A further test has as its system 5′-TGTAACA-3′. In words: DNase I footprint titration.
A further test has as its system 5′-AAAAACACA-3′. Kind of test: Quantitative DNase I footprint titration.
Test [1] has as its target nine bp polyamide binding site on restriction fragment from pUC-19. In words: Pvu II endonuclease protection assay, association and dissociation rates. An excerpt: Provided herein is an endonuclease protection assay to measure the rate of polyamide-DNA complex formation. Such an assay may comprise a labeled restriction fragment comprising a polyamide binding site that overlaps a restriction endonuclease cleavage site. Cleavage by the cognate is prevented when the overlapping polyamide binding site is occupied by the polyamide. As a control, a second labeled DNA fragment may be that contains the restriction site, but lacks the overlapping polyamide binding site. The rate of polyamide association with its target binding site may be assessed by incubating the solutions of the polyamide with the labeled target and reference fragments for a sufficient timer period. Using the experimental conditions provided herein, the reference site is nearly completely digested, but protection at the target site is observed and can be correlated with polyamide concentration and the time of equilibration. Similarly, the dissociation rate is analyzed by adding an excess of unlabeled competitor DNA to an equilibrated solution of the labeled DNA fragments and polyamide. Addition of the competitor reduces the concentration of free polyamide to zero. The rate at with polyamide dissociation occurs from the target site on the labeled fragment can be followed by the rate of loss of protection from restriction enzyme digestion as the re-equilibration time is increased.
An engineered, radiolabeled restriction fragment from pUC-19 was prepared in which a nine bp polyamide binding site overlaps by two base pairs with the cleavage site for the restriction endonuclease Pvu II. Cleavage by Pvu II is prevented when the overlapping polyamide binding site is .occupied by the polyamide. As a control, a second radiolabeled DNA fragment was prepared which contains a Pvu II site, but lacks the overlapping polyamide binding site.
The rate of polyamide association with its target binding site was assessed by combining solutions of the polyamide with the radiolabeled target and reference fragments and allowing them to for 5 minutes to 5 hours before initiating a treatment (1-2 minutes) with the enzyme Pvu II. Under the experimental conditions, the reference site is nearly completely digested, but protection at the target site is observed and can be correlated with polyamide concentration and the time of equilibration. Similarly, the dissociation rate is analyzed by adding an excess of unlabeled competitor DNA to an equilibrated solution of the labeled DNA fragments and polyamide. Addition of the competitor reduces the concentration of free polyamide to zero. The rate at with polyamide dissociation occurs from the target site on the labeled fragment can be followed by the rate of loss of protection from Pvu II digestion as the re-equilibration time is increased. The association profile with respect to time for the 9-ring extended hairpin polyamide ImPyPy-γ-ImPyPy-β-PyPyPy-G-Dp binding its cognate 9 base pair match site is shown in FIG. 6.
The extended hairpin dissociation rate has been determined to be kd=3.1±0.2×10^−5 s^−1, this corresponds to a half-time of 6.2 h (10 mM Bis-Tris (pH 7.0), 50 mM NaCl, 5 mM MgCl2, 1 mM mercaptoethanol at 37° C.). Wherein half-time is defined as the time required for 50% of a population of DNA and polyamide to dissociate or associate. The association rate has been determined at ka=1.3±0.8×10^4 M^−1s^−1; this corresponds to a half-time of 3.0 h at 5.0 nM. The determined value for the equilibrium association constant (Keq=6.3±0.8×10^8 M^−1) correlates well with the kinetically determined ratio (ka/kd=4.2±2.6×10^8 M^−1).

Bounds are passed on as bounds.

Regarding `CN(C)CCCNC(=O)CCNC(=O)c1cc(NC(=O)c2cc(NC(=O)CCNC(=O)c3cc(NC(=O)c4cc(NC(=O)c5nc(NC(=O)CCCNC(=O)c6cc(NC(=O)c7cc(NC(=O)c8cc(NC(=O)CCNC(=O)c9cc(NC(=O)c%10nccn%10C)cn9C)cn8C)cn7C)cn6C)cn5C)cn4C)cn3C)cn2C)cn1C`, the Ka in the test with 5′-TGTGAACA-3′ is less than 1e+09 M⁻¹.

For the compound `CC(=O)Nc1cn(C)c(C(=O)Nc2cn(C)c(C(=O)Nc3cc(C(=O)NCCCC(=O)Nc4cc(C(=O)Nc5cc(C(=O)Nc6cc(C(=O)NCCCO)n(C)c6)n(C)c5)n(C)c4)n(C)c3)n2)n1` [Ac-ImImPy-γ-PyPyPy-C3—OH], in the test with 5′-AACCAAGTACTTGGTA-3′, the “Ka 5′-AACCAAGTACTTGGTA” value was 7 × 10^6. Further, the “Ka 5′-AACCAAGTCTTGGTA-3′” value in the test on 5′-AACCAAGTCTTGGTA-3′ is 7 × 10^6.

With `CN(C)CCCNC(=O)CCNC(=O)c1cc(NC(=O)c2cc(NC(=O)c3cc(NC(=O)c4cc(NC(=O)c5nc(NC(=O)CCCNC(=O)c6cc(NC(=O)c7cc(NC(=O)c8cc(NC(=O)c9nc(NC(=O)c%10nccn%10C)cn9C)cn8C)cn7C)cn6C)cn5C)cn4C)cn3C)cn2C)cn1C` [ImImPyPyPy-γ-ImPyPyPyPy-β-Dp], the “equilibrium association constant Ka” value was 3.6×10^9 m^−1 with 5′-TGGAACA-3′ and less than 1e+07 M⁻¹ in the test with 5′-TGTAACA-3′ (pH 7.0, 22° C.). Moreover, the “reduction of affinity of the 5′-TGTAACA-3′ complex relative to ImPyPyPyPy-γ-ImPyPyPyPy-β-Dp” value with 5′-TGTAACA-3′ is listed as greater than 300 fold. Further, in the test with 5′-TGTAACA-3′ (5′-TGTAACA-3′ complexes), the free energy difference result is on record as “at least 4 kcal/mol”.

On to `CN(C)CCCNC(=O)CNC(=O)c1cc(NC(=O)c2cc(NC(=O)c3cc(NC(=O)CCNC(=O)c4cc(NC(=O)c5cc(NC(=O)c6nc(NC(=O)CCCNC(=O)c7cc(NC(=O)c8cc(NC(=O)c9nccn9C)cn8C)cn7C)cn6C)cn5C)cn4C)cn3C)cn2C)cn1C` [ImPyPy-γ-ImPyPy-β-PyPyPy-G-Dp], for which, in the test with 5′-AAAAACACA-3′, the “increase in affinity relative to six-ring hairpin ImPyPy-γ-ImPyPy-β-Dp” value is roughly 400 fold. Besides, at 5′-AAAAACACA-3′ (read-out: concentration at which the target site is bound, 9-bp target site), the Kd is 0.05 nM. Also, the “kinetically determined ratio ka/kd” value in test [1] is on record as 4.2±2.6×10^8 M^−1. The dissociation rate kd in test [1] (10 mM Bis-Tris (pH 7.0), 50 mM NaCl, 5 mM MgCl2, 1 mM mercaptoethanol at 37° C.) is 3.1±0.2×10^−5 s^−1. Besides, in test [1] (37° C.), the association rate ka was 1.3±0.8×10^4 M^−1s^−1, the dissociation half-time turned out to be 6.2 h and the “equilibrium association constant Keq” value is given as 6.3±0.8×10^8 M^−1. This compound also showed an association half-time in test [1] (at 5.0 nM) of 3.0 h.

`Cn1cc(NC(=O)c2cc(NC(=O)c3cc(NC(=O)CCCNC(=O)c4cc(NC(=O)c5nc(NC(=O)c6nc(NC(=O)CCCCCNC(=O)c7cc(NC(=O)c8cc(NC(=O)c9cc(NC(=O)c%10nccn%10C)cn9C)cn8C)cn7C)cn6C)cn5C)cn4C)cn3C)cn2C)cc1C(=O)NCCCO` [ImPyPyPy-C6-ImImPy-γ-PyPyPy-C3—OH] returned a Ka 5′-AACCAAGTACTTGGTA in the test with 5′-AACCAAGTACTTGGTA-3′ of less than 1e+08 M⁻¹.
